Our source for the IC50 values is patent US8481459B2, “Chemical inhibitors of ethylene biosynthesis” (Academia Sinica, priority 2010, dated 2013).

The target of the experiment is T1, recombinant Arabidopsis ACS5 (Arabidopsis thaliana, UniProt Q37001).
T1 construct: The full-length cDNA of Arabidopsis ACS5 (At5g65800) was cloned to pETDuet (Novagen); 6His (N); made in house; host or cells: E. coli BL21-CodonPlus (Stratagene)
T1 sequence (Q37001 1-470): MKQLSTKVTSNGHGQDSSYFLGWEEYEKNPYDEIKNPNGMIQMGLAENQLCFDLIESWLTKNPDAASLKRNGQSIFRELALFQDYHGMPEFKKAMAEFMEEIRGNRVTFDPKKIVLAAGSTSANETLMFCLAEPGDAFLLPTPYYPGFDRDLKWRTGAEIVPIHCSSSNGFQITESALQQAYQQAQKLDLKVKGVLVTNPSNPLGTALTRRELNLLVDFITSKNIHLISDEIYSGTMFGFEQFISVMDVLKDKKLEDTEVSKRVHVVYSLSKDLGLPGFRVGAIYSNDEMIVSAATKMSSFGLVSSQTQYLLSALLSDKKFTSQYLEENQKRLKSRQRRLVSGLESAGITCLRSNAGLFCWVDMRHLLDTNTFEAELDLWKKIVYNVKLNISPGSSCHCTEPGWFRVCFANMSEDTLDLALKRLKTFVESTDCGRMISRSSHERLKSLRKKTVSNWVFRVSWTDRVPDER
The experiment is described as follows: In vitro ACS activity assay. It counts as biochemical. To be noted: purified recombinant ACS5, 30 min at 25° C.; read-out: estimated half maximal inhibitory concentration (IC50), ACS5 enzyme activity. How it is done: The full-length cDNA of Arabidopsis ACS5 (At5g65800) was cloned to pETDuet (Novagen) to generate pETDuet-6His-ACS5 for expression in E. coli (BL21-CodonPlus, Stratagene) and subsequent purification of the recombinant ACS5 protein. Protein expression was induced at OD600 0.6 by adding 0.4 mM IPTG, and cells were incubated at 16° C. for 18 h. Cells were harvested by centrifugation at 6000×g for 10 min at 4° C. The cell pellet was washed and suspended in 50 mL phosphate buffer (300 mM NaCl, 20 mM phosphate buffer, pH 7.4) containing 20 mM imidazole. Cell lysis was achieved by a continuous high-pressure cell disrupter (TS 2.2 KW, Constant System) with 30 KPsi at 4° C. After washing the cell disrupter twice with 50 ml phosphate buffer containing 20 mM imidazole, the final 150 ml suspension was centrifuged at 10000×g for 30 min at 4° C. The supernatant was applied to a 5-mL HisTrap FF column in an AKTAprime system (GE Healthcare) and was subsequently washed stepwise with 100 mL buffer A (1 mM EDTA, 5 mM DTT, 250 mM HEPES buffer, pH 8.0) containing 20 mM imidazole, then 100 mL buffer A containing 100 mM imidazole. The bound protein was eluted by a 0.1-1.0 M gradient of imidazole in 25 mL buffer A and stored at −80° C. until further analysis.
ACS activity assay was performed as described (Lizada, et al. (1979) Anal Biochem 100, 140-145; Yamagami, et al. (2003) J Biol Chem 278, 49102-49112), with minor modifications. […] Ethylene level was measured by use of a gas chromatograph (HP 6890, Hewlett-Packard) equipped with a capillary column (19095P-U04, Agilent Technologies) and an autosampler (HP 7694, Agilent Technologies). […]
To further test this possibility, recombinant Arabidopsis ACS5 protein from bacterial cells was purified for an in vitro enzyme activity assay. […] The quantity of ACC converted to ethylene by recombinant ACS5 is the readout of ACS activity. […]

SMILES strings stand for the structures.

On to `CC1(C)CC(=O)c2cnc(NC3CCCC3)nc2C1` [Compound 9393], for which the IC50 was 3200 nM.
Then `COc1ccc(C2CC(=O)c3cnc(Nc4ccccc4)nc3C2)cc1` (stereo not drawn) [Compound 7303], with 500 nM.
On to `Cc1ccc(C2CC(=O)c3cnc(NC4CCCC4)nc3C2)cc1` (stereo not drawn) [Compound 9370], for which the IC50 was 1400 nM.
